From patent US20260174856A1, “USE OF HETEROARYLOXYNAPHTHALENE COMPOUND” (SHANGHAI RUNSHI MEDICAL TECHNOLOGY CO., LTD, priority 2022, published 2026)

Columns and labels:
[1] = Water sorption and desorption experiment (DVS hygroscopicity); type: physicochemical; settings: relative humidity 40%-80%, 25° C.
Description: Instrument: DVS Intrinsic Plus (SMS, UK).
Method: a sample was placed in a tared sample basket, the weight of the sample was automatically measured, and the sample was analyzed according to the parameters in the table below.
The samples obtained in Example 2 and Example 3 were investigated for sorption and desorption of moisture under the relative humidity of 40%-80% at 25° C. using a dynamic vapor sorption (DVS) instrument to determine the hygroscopicity of various salt forms.

Solubility experiment = settings: for Solubility: deionized water, 25° C.
[2] = Solid stability experiment; type: physicochemical; settings: for Crystalline form: XRPD, initial crystalline form I
Description: The sample obtained in Example 2 was investigated for physical stability and chemical stability under the conditions of 40° C./75% RH (open) and 60° C. (sealed) for 7 days, and for physical stability under the conditions of room temperature/92.5% RH (open) for 10 days.
Note: the “/” indicates undetected; the crystalline form results were obtained using the X-ray powder diffraction method.

[3] = system: pulmonary squamous cell carcinoma; experiment: Phase I clinical trial, effectiveness evaluation; type: in vivo, human
Source text: (§1) Drug: Compound B, tablets.
(§2) 1.1 Inclusion criteria: The main criteria include: (1) an age of 18-70 years old (including 18 years old and 70 years old) when signing an informed consent form; (2) patients with histopathologically or cytologically confirmed unresectable locally advanced or metastatic solid tumors, who have failed or are intolerant to standard treatments, or have no standard treatment regimens available as options; (3) the presence of at least one measurable lesion meeting RECIST v1.1 definition; (4) ECOG performance status (PS) score: 0-1; and so on.
(§3) (1) Dose escalation stage: initial doses: 1 mg, 2 mg, 4 mg, 6 mg, 9 mg, 12 mg, 16 mg, 20 mg, and 25 mg, administered orally once daily. After 7-days single administration stage, 28-days multiple administration stage began (continuous administration, with every 28 days constituting one cycle, until progressive disease or intolerable toxic reactions occurred). The subjects who had completed the treatment and observation for the 7-days single administration stage and the first cycle of the 28-days multiple administration stage, and who had acquired clinical benefit and could tolerate the drug treatment, could enter an extended treatment period based on their willingness. In the extended treatment period, every 4 weeks constituted one cycle.
(§4) (2) Dose expansion stage: 4 mg and 6 mg, administered orally once daily. For the continuous administration group, every 4 weeks constituted 1 cycle; for the group of 3-week administration and then 1-week interruption, every 4 weeks constituted one cycle; for the group of 2-week administration and then 1-week interruption, every 3 weeks constituted 1 cycle.
(§5) 1.3 Assessment of results: (1) Effectiveness evaluation: In this study, for the dose escalation stage, efficacy evaluation and data analysis were performed at the 4th week, 8th week and 12th week after the first day of the 28-days multiple administration stage and then every 8 weeks thereafter. For the dose expansion stage, efficacy evaluation on the group of 3-week administration and then 1-week interruption was performed at the 4th week, 8th week and 12th week after the first day of the 28-days multiple administration stage and then every 8 weeks thereafter; efficacy evaluation on the group of 2-week administration and then 1-week interruption was performed every 6 weeks after the first day of the 28-days multiple administration stage. The indicators of effectiveness include objective response rate (ORR), progression-free survival (PFS), overall survival (OS), disease control rate (DCR), and duration of response (DOR). (2) Safety evaluation: including evaluation of vital signs and physical examinations, electrocardiograms, ECOG PS scores, laboratory tests, adverse events, and the like.

[4] = system: nasopharyngeal squamous cell carcinoma; experiment: Phase I clinical trial, effectiveness evaluation; type: in vivo, human
Source text: as §1, §2, §3, §4, §5

[5] = Phase I clinical trial, safety evaluation; type: in vivo, human; settings: monotherapy, patients with solid tumors
Source text: as §1, §2, §3, §4
(§6) 1.3 Assessment of results: (1) Effectiveness evaluation: In this study, for the dose escalation stage, efficacy evaluation and data analysis were performed at the 4th week, 8th week and 12th week after the first day of the 28-days multiple administration stage and then every 8 weeks thereafter. […]

[6] = Grinding stability experiment; type: physicochemical; settings: XRPD
[7] = system: esophageal squamous cell carcinoma; experiment: Phase I clinical trial, effectiveness evaluation; type: in vivo, human
Source text: ORR: the percentage of subjects with complete remission (CR) and partial remission (PR) among all enrolled subjects from the date of the first dose.
DCR: defined as the percentage of subjects with CR, PR, or stable disease (SD) among all enrolled subjects from the date of the first dose.
PR: refers to partial remission, meaning that the sum of the diameters of target lesions has reduced by at least 30% compared to the baseline level.
as §1, §2, §3, §4, §6

[8] = 40° C./75% RH (open) for 7 days
[9] = of 41 patients with esophageal squamous cell carcinoma

Tartrate
Hygroscopicity [1]: 2.86%

Fumarate
Solubility (Solubility experiment): 1300 µg/mL | Hygroscopicity [1]: 2.11. %

Maleate
Solubility (Solubility experiment): 2000 µg/mL | Hygroscopicity [1]: 0.81% | Hygroscopicity (words) [1]: slightly hygroscopic

CNC(=O)c1cccc2cc(Oc3ccnc(NC(=O)c4ccc(N5C[C@@H](C)N[C@@H](C)C5)cc4)c3)ccc12 [Compound B]
Purity [2, 8]: 99.86% | Crystalline form [2, 8]: Not changed | Chemical stability ([2]; 40° C./75% RH and 60° C. for 7 days): good chemical stability | Physical stability of crystalline form I ([2]; 40° C./75% RH, 60° C. for 7 days, 92.5% RH for 10 days): good physical stability | Purity ([2]; 60° C. (sealed) for 7 days): 99.85% | Crystalline form ([2]; 60° C. (sealed) for 7 days): Not changed | Purity ([2]; initial state, 0 day): 99.85% | Crystalline form ([2]; room temperature/92.5% RH (open) for 10 days): Not changed | Target lesion reduction among SD cases ([3]; 4 SD cases of 5 patients with pulmonary squamous cell carcinoma): all of which showed target lesion reduction | Maximum reduction in the target lesion ([3]; Subject S09009, stage IV, 4 mg QD continuous): 10.7% | Cases achieving SD ([3]; of 5 patients with pulmonary squamous cell carcinoma): 4 cases | Target lesion reduction in SD case ([4]; 1 SD case of 2 patients with nasopharyngeal squamous cell carcinoma): also showed target lesion reduction | Maximum reduction in the target lesion ([4]; Subject S01001, stage IV, 2 mg (dose escalation) QD): 7.9% | Cases achieving SD ([4]; of 2 patients with nasopharyngeal squamous cell carcinoma): 1 case | Solubility in buffer compared to compound A (Solubility experiment; Na2HPO4-citric acid buffer (pH 4.6)): better solubility in the buffer compared to compound A | Common (≥10%) adverse effects [5]: proteinuria, hypertension, hypoalbuminemia, decreased platelet count, decreased leukocyte count, increased alanine aminotransferase, increased aspartate aminotransferase, hyperuricemia, rash, anemia and fatigue | Overall safety [5]: overall safe and controllable | Severity of most adverse effects [5]: grade 2 or below | Crystalline form I after grinding ([6]; mechanically ground after dropwise addition of organic solvent (methanol, ethanol, acetone, acetonitrile, ethyl acetate, etc.)): not changed | Crystalline form I after grinding ([6]; mechanically ground using a mortar for 2 min): not changed | Crystalline form I after grinding ([6]; mechanically ground using a mortar for 5 min): not changed | Response as of the latest assessment ([7]; Subject S03008, 6 mg QD continuous, in the 18th treatment cycle): remains in PR | Cases achieving PR [7, 9]: 6 cases | Cases achieving SD [7, 9]: 21 cases | Cases of SD showing target lesion reduction ([7]; of 41 patients with esophageal squamous cell carcinoma (21 SD)): 11 cases | Hygroscopicity [1]: 0.65% | Hygroscopicity (words) [1]: slightly hygroscopic

Phosphate
Solubility (Solubility experiment): 3500 µg/mL | Hygroscopicity [1]: 3.75%
